Structures are written as SMILES.

In general, residual activity refers to the signal under treatment as a percentage of the control signal.

Chain of JAK3 JH1 JH2 (human) (P52333 whole entry, looked up): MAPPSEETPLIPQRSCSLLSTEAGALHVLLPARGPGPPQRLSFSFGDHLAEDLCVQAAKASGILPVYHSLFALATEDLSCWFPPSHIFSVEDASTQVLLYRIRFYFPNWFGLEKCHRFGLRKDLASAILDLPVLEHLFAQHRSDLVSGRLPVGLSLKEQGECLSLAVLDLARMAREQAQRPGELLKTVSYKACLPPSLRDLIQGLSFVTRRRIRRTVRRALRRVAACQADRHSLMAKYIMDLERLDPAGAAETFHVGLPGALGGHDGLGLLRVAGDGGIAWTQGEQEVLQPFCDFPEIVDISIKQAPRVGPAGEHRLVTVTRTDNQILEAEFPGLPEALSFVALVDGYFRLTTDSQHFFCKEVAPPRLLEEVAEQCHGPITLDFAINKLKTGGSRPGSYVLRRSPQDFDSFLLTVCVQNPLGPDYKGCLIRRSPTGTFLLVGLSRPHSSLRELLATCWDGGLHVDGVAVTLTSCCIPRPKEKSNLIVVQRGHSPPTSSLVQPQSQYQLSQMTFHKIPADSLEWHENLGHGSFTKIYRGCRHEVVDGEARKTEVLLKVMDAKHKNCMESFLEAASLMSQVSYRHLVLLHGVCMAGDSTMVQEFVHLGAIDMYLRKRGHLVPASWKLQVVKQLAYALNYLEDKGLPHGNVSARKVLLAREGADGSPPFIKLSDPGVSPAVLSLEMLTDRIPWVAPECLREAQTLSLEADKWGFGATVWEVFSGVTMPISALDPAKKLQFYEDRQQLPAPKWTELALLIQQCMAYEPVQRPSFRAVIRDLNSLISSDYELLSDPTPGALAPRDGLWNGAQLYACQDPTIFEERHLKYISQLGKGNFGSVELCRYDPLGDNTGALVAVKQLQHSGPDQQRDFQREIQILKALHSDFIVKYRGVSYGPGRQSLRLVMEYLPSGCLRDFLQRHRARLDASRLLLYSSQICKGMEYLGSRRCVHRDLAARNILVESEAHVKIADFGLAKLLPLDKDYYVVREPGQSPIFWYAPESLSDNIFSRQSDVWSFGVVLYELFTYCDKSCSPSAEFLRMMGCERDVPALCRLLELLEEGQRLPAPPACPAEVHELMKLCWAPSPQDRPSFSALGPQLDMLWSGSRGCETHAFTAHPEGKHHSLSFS
Chain of CAMK2G (human) (Q13555 whole entry, looked up): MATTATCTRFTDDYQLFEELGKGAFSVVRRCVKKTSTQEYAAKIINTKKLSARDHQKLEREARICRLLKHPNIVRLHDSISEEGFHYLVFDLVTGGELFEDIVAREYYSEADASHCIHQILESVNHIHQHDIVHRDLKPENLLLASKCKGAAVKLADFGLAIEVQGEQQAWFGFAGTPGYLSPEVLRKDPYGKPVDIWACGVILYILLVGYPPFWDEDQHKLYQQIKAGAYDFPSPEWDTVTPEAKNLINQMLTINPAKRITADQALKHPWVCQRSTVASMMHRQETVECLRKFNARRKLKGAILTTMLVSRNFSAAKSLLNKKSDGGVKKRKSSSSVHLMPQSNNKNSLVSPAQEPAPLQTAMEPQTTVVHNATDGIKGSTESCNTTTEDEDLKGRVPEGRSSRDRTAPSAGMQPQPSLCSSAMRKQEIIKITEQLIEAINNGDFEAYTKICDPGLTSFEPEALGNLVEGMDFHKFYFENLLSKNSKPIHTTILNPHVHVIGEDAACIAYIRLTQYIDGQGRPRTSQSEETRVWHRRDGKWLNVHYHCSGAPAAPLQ
Chain of CDK2 CCNA2 (human) (P20248 whole entry, looked up, other chains not shown): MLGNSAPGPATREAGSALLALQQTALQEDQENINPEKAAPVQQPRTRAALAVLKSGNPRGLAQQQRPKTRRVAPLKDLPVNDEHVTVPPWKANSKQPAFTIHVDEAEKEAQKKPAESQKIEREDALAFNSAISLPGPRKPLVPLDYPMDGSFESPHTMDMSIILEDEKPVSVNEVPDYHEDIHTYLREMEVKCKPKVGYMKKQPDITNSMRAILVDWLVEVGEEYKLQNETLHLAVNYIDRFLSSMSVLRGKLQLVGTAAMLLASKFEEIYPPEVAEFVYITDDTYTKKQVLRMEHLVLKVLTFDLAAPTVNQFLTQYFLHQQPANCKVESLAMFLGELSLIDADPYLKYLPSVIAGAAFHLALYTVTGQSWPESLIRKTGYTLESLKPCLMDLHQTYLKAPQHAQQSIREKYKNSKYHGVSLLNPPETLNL
Chain of PLK3 (human) (Q9H4B4 whole entry, looked up): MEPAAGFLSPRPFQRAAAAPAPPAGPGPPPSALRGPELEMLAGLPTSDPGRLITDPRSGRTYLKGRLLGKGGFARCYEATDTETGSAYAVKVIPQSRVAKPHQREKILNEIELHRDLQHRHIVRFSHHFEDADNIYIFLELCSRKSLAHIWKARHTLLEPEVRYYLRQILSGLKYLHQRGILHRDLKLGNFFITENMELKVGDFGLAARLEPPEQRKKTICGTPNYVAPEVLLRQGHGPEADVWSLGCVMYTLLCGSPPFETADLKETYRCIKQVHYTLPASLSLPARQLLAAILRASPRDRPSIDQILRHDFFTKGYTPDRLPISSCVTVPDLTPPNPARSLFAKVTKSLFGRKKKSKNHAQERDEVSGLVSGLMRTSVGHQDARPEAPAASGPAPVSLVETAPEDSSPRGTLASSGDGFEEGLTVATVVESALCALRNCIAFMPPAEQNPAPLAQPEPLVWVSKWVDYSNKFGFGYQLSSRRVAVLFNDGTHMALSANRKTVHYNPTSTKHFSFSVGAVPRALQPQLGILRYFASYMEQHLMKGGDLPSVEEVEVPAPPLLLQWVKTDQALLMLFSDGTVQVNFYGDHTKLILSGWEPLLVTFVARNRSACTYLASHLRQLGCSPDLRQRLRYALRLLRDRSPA
Chain of MARK3 (human) (P27448 whole entry, looked up): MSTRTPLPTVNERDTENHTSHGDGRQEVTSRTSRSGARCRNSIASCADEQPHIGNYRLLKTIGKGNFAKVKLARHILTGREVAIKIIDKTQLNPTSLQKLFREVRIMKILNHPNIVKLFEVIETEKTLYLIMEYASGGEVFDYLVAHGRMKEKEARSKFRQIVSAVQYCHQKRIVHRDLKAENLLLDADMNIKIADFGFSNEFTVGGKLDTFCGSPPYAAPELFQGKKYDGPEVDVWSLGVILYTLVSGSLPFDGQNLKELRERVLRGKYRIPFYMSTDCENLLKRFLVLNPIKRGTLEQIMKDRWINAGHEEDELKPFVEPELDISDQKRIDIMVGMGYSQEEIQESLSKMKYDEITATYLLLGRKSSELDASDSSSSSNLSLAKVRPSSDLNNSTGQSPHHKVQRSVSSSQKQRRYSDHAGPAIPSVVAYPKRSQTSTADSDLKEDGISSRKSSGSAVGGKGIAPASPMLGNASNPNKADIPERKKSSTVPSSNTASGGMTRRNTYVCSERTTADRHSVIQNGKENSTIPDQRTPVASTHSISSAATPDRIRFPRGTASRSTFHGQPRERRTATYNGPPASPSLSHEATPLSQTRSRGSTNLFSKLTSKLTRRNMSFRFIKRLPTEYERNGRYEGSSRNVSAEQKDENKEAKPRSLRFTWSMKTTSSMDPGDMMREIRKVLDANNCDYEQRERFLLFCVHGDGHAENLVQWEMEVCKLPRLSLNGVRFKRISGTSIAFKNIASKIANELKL

The first experiment addresses JAK3 JH1 JH2 (human) (UniProt P52333). In words: radiometric filter-binding kinase assay, Kinase HotSpot. Particulars: compound 0.5 µM; ATP 10 µM.
On to `CCN(CC)CCCCN1c2ccccc2Oc2ccc(Cl)cc21`, for which the residual activity stood at 106%.
In the case of `CC(C)[C@H](CO)Nc1nc(Nc2cc(N)cc(Cl)c2)c2ncn(C(C)C)c2n1`, the residual activity worked out at 108%.
With `Nc1nnc2[nH]c3ccccc3nc1-2`, the residual activity is 68%.
The same measure, in the same setting: the same measure for `CCn1cnc2c(Nc3cccc(Cl)c3)nc(N[C@@H]3CCCC[C@@H]3N)nc21`: 99.6%.

In a further experiment the target is PLK2 (human) (UniProt Q9NYY3). Described as above. Particulars: compound 0.5 µM; ATP 10 µM.
Chain of PLK2 (human) (Q9NYY3 whole entry, looked up): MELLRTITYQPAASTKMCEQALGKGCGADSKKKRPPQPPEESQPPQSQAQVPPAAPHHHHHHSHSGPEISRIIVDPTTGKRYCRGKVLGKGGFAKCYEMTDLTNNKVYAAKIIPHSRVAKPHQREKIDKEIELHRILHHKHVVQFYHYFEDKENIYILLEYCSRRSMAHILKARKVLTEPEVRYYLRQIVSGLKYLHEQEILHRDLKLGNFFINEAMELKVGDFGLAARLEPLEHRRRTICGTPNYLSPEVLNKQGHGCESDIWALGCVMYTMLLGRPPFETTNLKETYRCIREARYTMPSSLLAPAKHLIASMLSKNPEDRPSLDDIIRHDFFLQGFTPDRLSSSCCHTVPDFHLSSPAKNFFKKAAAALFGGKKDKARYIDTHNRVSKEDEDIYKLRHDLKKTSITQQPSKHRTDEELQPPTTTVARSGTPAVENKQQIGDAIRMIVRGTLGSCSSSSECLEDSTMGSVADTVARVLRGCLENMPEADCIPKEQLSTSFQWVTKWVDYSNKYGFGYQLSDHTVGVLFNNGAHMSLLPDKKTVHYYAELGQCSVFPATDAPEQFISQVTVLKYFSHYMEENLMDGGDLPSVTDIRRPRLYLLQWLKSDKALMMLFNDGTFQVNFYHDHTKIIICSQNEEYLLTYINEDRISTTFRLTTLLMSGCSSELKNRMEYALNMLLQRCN
`CCN(CC)CCCCN1c2ccccc2Oc2ccc(Cl)cc21`: the residual activity was determined as 103%.
On to `CC(C)[C@H](CO)Nc1nc(Nc2cc(N)cc(Cl)c2)c2ncn(C(C)C)c2n1`, for which the residual activity amounted to 92%.
Consider `Nc1nnc2[nH]c3ccccc3nc1-2`, for which the residual activity amounted to 101%.
The same measure, in the same setting: the same measure for `CCn1cnc2c(Nc3cccc(Cl)c3)nc(N[C@@H]3CCCC[C@@H]3N)nc21`: 95.8%.

A further experiment deals with CAMK1D (human) (UniProt Q8IU85). The description is as above. Particulars: compound 0.5 µM; ATP 10 µM.
Take `CCN(CC)CCCCN1c2ccccc2Oc2ccc(Cl)cc21`: the residual activity is 107%.
The same measure, in the same setting: the same measure for `CC(C)[C@H](CO)Nc1nc(Nc2cc(N)cc(Cl)c2)c2ncn(C(C)C)c2n1`: 103%; for `Nc1nnc2[nH]c3ccccc3nc1-2`: 98.3%.
Still for that read-out and setting: the same measure for `CCn1cnc2c(Nc3cccc(Cl)c3)nc(N[C@@H]3CCCC[C@@H]3N)nc21`: 96.7%.

For the next experiment, the target named is DMPK (human) (UniProt Q09013). The experiment is described as above. To be noted: compound 0.5 µM; ATP 10 µM.
Turning to `CCN(CC)CCCCN1c2ccccc2Oc2ccc(Cl)cc21`, the residual activity amounted to 99.2%.
The same measure, in the same setting: in the case of `CC(C)[C@H](CO)Nc1nc(Nc2cc(N)cc(Cl)c2)c2ncn(C(C)C)c2n1` it was 99.7%.
The same measure, in the same setting: in the case of `Nc1nnc2[nH]c3ccccc3nc1-2` it was 98.4%.
Consider `CCn1cnc2c(Nc3cccc(Cl)c3)nc(N[C@@H]3CCCC[C@@H]3N)nc21`, for which the residual activity was determined as 99.7%.

Another experiment deals with MAPK11 (human) (UniProt Q15759). The description is as above. To be noted: compound 0.5 µM; ATP 10 µM.
For the molecule `CCN(CC)CCCCN1c2ccccc2Oc2ccc(Cl)cc21`, the residual activity is 103%.
As to `CC(C)[C@H](CO)Nc1nc(Nc2cc(N)cc(Cl)c2)c2ncn(C(C)C)c2n1`, the residual activity turned out to be 96.3%.
In the case of `Nc1nnc2[nH]c3ccccc3nc1-2`, the residual activity worked out at 93.8%.
Same read-out and setting: in the case of `CCn1cnc2c(Nc3cccc(Cl)c3)nc(N[C@@H]3CCCC[C@@H]3N)nc21` it was 94.1%.

For the next experiment, the target named is SYK (human) (UniProt P43405). Described as above. Particulars: compound 0.5 µM; ATP 10 µM.
Turning to `CCN(CC)CCCCN1c2ccccc2Oc2ccc(Cl)cc21`, the residual activity is 97.6%.
On the same count and under the same terms, the same measure for `CC(C)[C@H](CO)Nc1nc(Nc2cc(N)cc(Cl)c2)c2ncn(C(C)C)c2n1`: 81.1%; for `Nc1nnc2[nH]c3ccccc3nc1-2`: 100%.
Same read-out and setting: the same measure for `CCn1cnc2c(Nc3cccc(Cl)c3)nc(N[C@@H]3CCCC[C@@H]3N)nc21`: 98.4%.

The next experiment addresses PLK3 (human) (UniProt Q9H4B4). The experiment is described as above. Particulars: compound 0.5 µM; ATP 10 µM.
Take `CCN(CC)CCCCN1c2ccccc2Oc2ccc(Cl)cc21`: the residual activity is 102%.
For the molecule `CC(C)[C@H](CO)Nc1nc(Nc2cc(N)cc(Cl)c2)c2ncn(C(C)C)c2n1`, the residual activity is 62.8%.
In the case of `Nc1nnc2[nH]c3ccccc3nc1-2`, the residual activity was determined as 96.3%.
`CCn1cnc2c(Nc3cccc(Cl)c3)nc(N[C@@H]3CCCC[C@@H]3N)nc21`: the residual activity amounted to 90.1%.

The target of the next experiment is PRKCH (human) (UniProt P24723). The experiment is described as above. To be noted: compound 0.5 µM; ATP 10 µM.
`CCN(CC)CCCCN1c2ccccc2Oc2ccc(Cl)cc21`: the residual activity came out at 108%.
The same measure, in the same setting: the same measure for `CC(C)[C@H](CO)Nc1nc(Nc2cc(N)cc(Cl)c2)c2ncn(C(C)C)c2n1`: 99.4%; for `Nc1nnc2[nH]c3ccccc3nc1-2`: 87.9%.
The same measure, in the same setting: the same measure for `CCn1cnc2c(Nc3cccc(Cl)c3)nc(N[C@@H]3CCCC[C@@H]3N)nc21`: 77.6%.

A further experiment has as its target MAP3K2 (human) (UniProt Q9Y2U5). The experiment is described as above. Particulars: compound 0.5 µM; ATP 10 µM.
Consider `CCN(CC)CCCCN1c2ccccc2Oc2ccc(Cl)cc21`, for which the residual activity came to 88.2%.
Consider `CC(C)[C@H](CO)Nc1nc(Nc2cc(N)cc(Cl)c2)c2ncn(C(C)C)c2n1`, for which the residual activity worked out at 83.1%.
As to `Nc1nnc2[nH]c3ccccc3nc1-2`, the residual activity worked out at 92.6%.
As for `CCn1cnc2c(Nc3cccc(Cl)c3)nc(N[C@@H]3CCCC[C@@H]3N)nc21`, the residual activity was 91.7%.

The next experiment addresses AURKB (human) (UniProt Q96GD4). The experiment is described as above. Particulars: compound 0.5 µM; ATP 10 µM.
In the case of `CCN(CC)CCCCN1c2ccccc2Oc2ccc(Cl)cc21`, the residual activity stood at 94.1%.
Same read-out and setting: in the case of `CC(C)[C@H](CO)Nc1nc(Nc2cc(N)cc(Cl)c2)c2ncn(C(C)C)c2n1` it was 87.8%; in that of `Nc1nnc2[nH]c3ccccc3nc1-2`, 101%; in that of `CCn1cnc2c(Nc3cccc(Cl)c3)nc(N[C@@H]3CCCC[C@@H]3N)nc21`, 98.8%.

The next experiment concerns the target MARK3 (human) (UniProt P27448). Described as above. To be noted: compound 0.5 µM; ATP 10 µM.
With `CCN(CC)CCCCN1c2ccccc2Oc2ccc(Cl)cc21`, the residual activity was 102%.
The same measure, in the same setting: in the case of `CC(C)[C@H](CO)Nc1nc(Nc2cc(N)cc(Cl)c2)c2ncn(C(C)C)c2n1` it was 85.2%.
The same measure, in the same setting: in the case of `Nc1nnc2[nH]c3ccccc3nc1-2` it was 102%; in that of `CCn1cnc2c(Nc3cccc(Cl)c3)nc(N[C@@H]3CCCC[C@@H]3N)nc21`, 98.7%.

The target in the next experiment is ERBB4 (human) (UniProt Q15303). The experiment is described as above. To be noted: compound 0.5 µM; ATP 10 µM.
Turning to `CCN(CC)CCCCN1c2ccccc2Oc2ccc(Cl)cc21`, the residual activity amounted to 102%.
On the same count and under the same terms, in the case of `CC(C)[C@H](CO)Nc1nc(Nc2cc(N)cc(Cl)c2)c2ncn(C(C)C)c2n1` it was 131%.
Turning to `CCn1cnc2c(Nc3cccc(Cl)c3)nc(N[C@@H]3CCCC[C@@H]3N)nc21`, the residual activity amounted to 103%.

The next experiment addresses CAMK2G (human) (UniProt Q13555). Described as above. Particulars: compound 0.5 µM; ATP 10 µM.
In the case of `CCN(CC)CCCCN1c2ccccc2Oc2ccc(Cl)cc21`, the residual activity amounted to 104%.
Take `CC(C)[C@H](CO)Nc1nc(Nc2cc(N)cc(Cl)c2)c2ncn(C(C)C)c2n1`: the residual activity was found to be 104%.
Still for that read-out and setting: the same measure for `Nc1nnc2[nH]c3ccccc3nc1-2`: 108%.
In the case of `CCn1cnc2c(Nc3cccc(Cl)c3)nc(N[C@@H]3CCCC[C@@H]3N)nc21`, the residual activity stood at 104%.

For a further experiment, the target named is MELK (human) (UniProt Q14680). The experiment is described as above. Particulars: compound 0.5 µM; ATP 10 µM.
Chain of MELK (human) (Q14680 whole entry, looked up): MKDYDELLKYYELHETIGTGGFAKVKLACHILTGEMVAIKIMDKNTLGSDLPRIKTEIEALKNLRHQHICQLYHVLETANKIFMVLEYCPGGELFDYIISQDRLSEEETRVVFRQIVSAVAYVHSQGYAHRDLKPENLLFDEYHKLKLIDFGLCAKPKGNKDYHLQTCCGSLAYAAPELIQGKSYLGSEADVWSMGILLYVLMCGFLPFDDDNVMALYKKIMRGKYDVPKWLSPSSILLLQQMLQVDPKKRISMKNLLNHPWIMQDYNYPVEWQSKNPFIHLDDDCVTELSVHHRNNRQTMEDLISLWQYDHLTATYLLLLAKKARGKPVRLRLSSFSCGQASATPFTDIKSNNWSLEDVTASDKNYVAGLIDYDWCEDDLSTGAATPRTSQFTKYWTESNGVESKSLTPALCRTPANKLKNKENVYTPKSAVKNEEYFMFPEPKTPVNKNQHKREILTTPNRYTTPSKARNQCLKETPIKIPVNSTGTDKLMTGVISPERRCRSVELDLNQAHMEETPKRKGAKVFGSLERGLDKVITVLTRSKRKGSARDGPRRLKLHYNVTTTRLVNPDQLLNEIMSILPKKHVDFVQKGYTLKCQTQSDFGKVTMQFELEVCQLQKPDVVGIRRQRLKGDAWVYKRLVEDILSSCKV
In the case of `CCN(CC)CCCCN1c2ccccc2Oc2ccc(Cl)cc21`, the residual activity was determined as 95.3%.
Consider `CC(C)[C@H](CO)Nc1nc(Nc2cc(N)cc(Cl)c2)c2ncn(C(C)C)c2n1`, for which the residual activity is 51.5%.
With `Nc1nnc2[nH]c3ccccc3nc1-2`, the residual activity is 92.9%.
Still for that read-out and setting: in the case of `CCn1cnc2c(Nc3cccc(Cl)c3)nc(N[C@@H]3CCCC[C@@H]3N)nc21` it was 77%.

Another experiment has as its target PAK2 (human) (UniProt Q13177). The description is as above. To be noted: compound 0.5 µM; ATP 10 µM.
For `CCN(CC)CCCCN1c2ccccc2Oc2ccc(Cl)cc21`, the residual activity came to 98.6%.
On to `CC(C)[C@H](CO)Nc1nc(Nc2cc(N)cc(Cl)c2)c2ncn(C(C)C)c2n1`, for which the residual activity was 95.5%.
Same read-out and setting: in the case of `Nc1nnc2[nH]c3ccccc3nc1-2` it was 104%.
Regarding `CCn1cnc2c(Nc3cccc(Cl)c3)nc(N[C@@H]3CCCC[C@@H]3N)nc21`, the residual activity amounted to 93.9%.

The next experiment has as its target OXSR1 (human) (UniProt O95747). Described as above. Particulars: compound 0.5 µM; ATP 10 µM.
`CCN(CC)CCCCN1c2ccccc2Oc2ccc(Cl)cc21`: the residual activity turned out to be 89.8%.
Same read-out and setting: the same measure for `CC(C)[C@H](CO)Nc1nc(Nc2cc(N)cc(Cl)c2)c2ncn(C(C)C)c2n1`: 100%; for `Nc1nnc2[nH]c3ccccc3nc1-2`: 92.7%; for `CCn1cnc2c(Nc3cccc(Cl)c3)nc(N[C@@H]3CCCC[C@@H]3N)nc21`: 92.3%.

A further experiment addresses CDK2 CCNA2 (human) (UniProt P24941+P20248). The experiment is described as above. To be noted: compound 0.5 µM; ATP 10 µM.
With `CCN(CC)CCCCN1c2ccccc2Oc2ccc(Cl)cc21`, the residual activity was 98.7%.
For the molecule `Nc1nnc2[nH]c3ccccc3nc1-2`, the residual activity was determined as 86.2%.
As for `CCn1cnc2c(Nc3cccc(Cl)c3)nc(N[C@@H]3CCCC[C@@H]3N)nc21`, the residual activity worked out at 23.6%.

Another experiment deals with PRKCB2 (human) (UniProt P05771). Described as above. Particulars: compound 0.5 µM; ATP 10 µM.
With `CCN(CC)CCCCN1c2ccccc2Oc2ccc(Cl)cc21`, the residual activity came out at 102%.
Still for that read-out and setting: in the case of `CC(C)[C@H](CO)Nc1nc(Nc2cc(N)cc(Cl)c2)c2ncn(C(C)C)c2n1` it was 97.3%.

(Values after the kinase profiling compilation of Christmann-Franck et al. (2016).)
